Data reported in patent US20080234188A1, “Antimicrobial Peptides” (The Hospital for Sick Children, priority 2001, published 2008).
Values after ≈ are worked out from the molar mass of the structure shown. Where a SMILES comes first, the peptide text is derived from it.

Assays:
[1] = tested on: C498: E. coli, wild type strain; assay type: cell-based; settings: C498: , wild type strain
Description: (§1) The bacterial strains used were E. coli C498, E. coli C500, Escherichia coli UB1005 and its antibiotic supersusceptible derivative DC2 (22); a clinical isolate of Staphylococcus epidermidis (C621); coryneform bacterial strain Corynebacterium xerosis (C875); and E. coli ATCC 25922, Staphylococcus aureus ATCC 25923, Enterococcus faecalis ATCC 29212, Bacillus subtilis ATCC 6633 and Pseudomonas aeruginosa ATCC 27853, all from American Type Culture Collection.
(§2) Peptide antibacterial activity was assessed by the method of R. Hancock et al. (Wu & Hancock (1999), J. Biol. Chem., v. 274, pp. 29-35). Test strains of bacteria from Mueller Hinton agar (MHA) plates were inoculated into 5 ml Mueller Hinton Broth (MHB) in tubes and grown overnight at 37° C. on a shaker (180 rpm). Serial dilutions of test peptides (at 10 times the required test concentrations) were made in 0.01% acetic acid, 0.2% BSA, in polypropylene or coated glass tubes as follows: the test peptide was (a) dissolved in distilled water at 20 times the required maximum concentration (enough final volume for all tests to be performed on a given day); (b) diluted into an equal volume of 0.02% acetic acid, 0.4% BSA to give 10 times the required maximum concentration; (c) serial doubling dilutions were performed in 0.01% acetic acid, 0.2% BSA to provide serial dilutions of peptides at 10 times the required test concentrations, e.g., 640, 320, 160, . . . 2.5 μg/ml. (No deleterious effects of long-term storage of peptides in these media have been detected). Overnight bacterial cultures were diluted in MHB to give 2−7×10^5 colony forming units/ml. Bacterial suspension (100 μl) was dispensed in each well; controls without bacteria were maintained in parallel. To each well was added 11 μl of 10× test peptide and plates were incubated at 37° C. for 18-24 hours, and checked again at 40-48 hours. Plates were read visually and at 600 nm in a microplate reader (Molecular Devices).
(§3) were synthesized. The antibacterial activity of these peptides was determined against both Gram-positive bacteria ([…], Corynebacterium xerosis) and Gram-negative bacteria (various strains of E. coli). The results are shown in Table 2, along with the average hydrophobicity of each peptide, calculated as described herein.

[2] = tested on: C500: E. coli, antibiotic strain; assay type: cell-based; settings: C500: , antibiotic strain
Description: as §1, §2, §3

[3] = tested on: Corynebacterium xerosis (C875); assay type: cell-based
In short: (§4)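 Broth microdilution in Mueller Hinton Broth, inoculum 2−7×10^5 CFU/ml. Peptides serially doubled in 0.01% acetic acid, 0.2% BSA and added at 10× final concentration. Incubation 37° C for 18-24 h, rechecked at 40-48 h; growth read visually and at 600 nm.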

[4] = tested on: Staphylococcus epidermidis (C621); assay type: cell-based; settings: C621
In short: as §4

[5] = tested on: E. coli DC2; experiment: Assay of antibacterial activity (MIC), E. coli DC2; assay type: cell-based, Escherichia coli; settings: Table 5A
In short: (§5)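 Growth is scored visually and by absorbance at 600 nm after 18-24 h at 37° C, with a second check at 40-48 h. Bacteria are seeded at 2−7×10^5 CFU/ml in Mueller Hinton broth against twofold peptide dilutions made up in 0.01% acetic acid, 0.2% BSA.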

[6] = tested on: E. coli UB1005; assay type: cell-based, Escherichia coli; settings: UB1005
In short: as §5

[7] = tested on: E. coli ATCC25922; assay type: cell-based
Description: as §1, §2
(§6) A further number of the peptides of the invention were tested for antimicrobial activity against a range of Gram-positive and Gram-negative bacteria by the assay described immediately before Example 1.

[8] = tested on: P. aeruginosa ATCC27853; assay type: cell-based, Pseudomonas aeruginosa
Description: as §1, §2, §6

[9] = tested on: S. aureus ATCC25923; assay type: cell-based, Staphylococcus aureus
Description: as §1, §2, §6

[10] = tested on: E. faecalis ATCC29212; assay type: cell-based, Enterococcus faecalis
Description: as §1, §2, §6

[11] = tested on: B. subtilis ATCC6633; assay type: cell-based, Bacillus subtilis
Description: as §1, §2, §6

[12] = tested on: Human RBC; assay type: cell-based
Experimental: (§7) Erythrocytes from heparinized rabbit or human blood were washed three times with phosphate-buffered saline (PBS; 5 mM phosphate buffer, 0.14 M saline, pH 7.3), and centrifuged at 1000×g for 15 min at 4° C. The erythrocytes were diluted with PBS to 4% (v/v). Dilutions of the peptides in PBS were plated in 100 μl volumes in microtitre plates (Costar 3790, polypropylene) together with 100μl of the erythrocyte suspension. PBS was used as control and 100% lysis was determined in 0.1% Triton X-100. The plates were incubated at 37° C. for 1 h and then centrifuged at 1000×g for 5 min. 100 μl aliquots of the supernatant were transferred to microtitre plates (Nunc, polystyrene), and the release of hemoglobin was monitored by measurement of the absorbance at 540 nm in a microplate reader. The results are shown in Table 6, for peptide concentrations of […]. With only one or two exceptions, little or no hemolysis was seen.

[13] = tested on: Rabbit RBC; assay type: cell-based
Experimental: as §7

Compound | MIC C498 [1] | MIC C500 [2] | MIC C. xerosis C875 [3] | MIC C621 [4] | MIC S. epidermidis C621 [4] | MIC E. coli DC2 [5] | MIC E. coli UB1005 [6] | MIC E. coli ATCC25922 [7] | MIC P. aeruginosa ATCC27853 [8] | MIC S. aureus ATCC25923 [9] | MIC E. faecalis ATCC29212 [10] | MIC B. subtilis ATCC6633 [11] | Human RBC (% lysis) 50 μM [12] | Human RBC (% lysis) 200 μM [12] | Rabbit RBC (% lysis) 50 μM [13] | Rabbit RBC (% lysis) 200 μM [13] | MIC C875 [3]
C[C@H](NC(=O)[C@H](C)NC(=O)[C@H](C)NC(=O)[C@H](Cc1ccccc1)NC(=O)[C@H](C)NC(=O)[C@H](CCCCN)NC(=O)[C@@H](N)CCCCN)C(=O)N[C@@H](C)C(=O)N[C@@H](C)C(=O)N[C@@H](Cc1ccccc1)C(=O)N[C@@H](C)C(=O)N[C@@H](C)C(=O)N[C@@H](Cc1c[nH]c2ccccc12)C(=O)N[C@@H](C)C(=O)N[C@@H](C)C(=O)N[C@@H](Cc1ccccc1)C(=O)N[C@@H](C)C(=O)N[C@@H](CCCCN)C(=O)N[C@@H](CCCCN)C(=O)N[C@@H](CCCCN)C(=O)N[C@@H](CCCCN)C(N)=O [Peptide F21] (H-KKAFAAAAAFAAWAAFAKKKK-NH2; N-terminus assumed) | 8 µM (≈ 17.6 µg/mL) | 4 µM (≈ 8.78 µg/mL) | 0.5 µM (≈ 1.1 µg/mL) | 8 to 16 µM | 8 µM (≈ 17.6 µg/mL) | 4 µM (≈ 8.78 µg/mL) | 8 µM (≈ 17.6 µg/mL) | 32 µM (≈ 70.3 µg/mL) | >32 µM | >32 µM | >32 µM | 2 µM (≈ 4.39 µg/mL) | 0 % lysis | 0 % lysis | 1 % lysis | 3 % lysis | –
C[C@H](NC(=O)[C@H](C)NC(=O)[C@H](Cc1ccccc1)NC(=O)[C@H](C)NC(=O)[C@H](C)NC(=O)[C@H](Cc1c[nH]c2ccccc12)NC(=O)[C@H](C)NC(=O)[C@H](C)NC(=O)[C@H](Cc1ccccc1)NC(=O)[C@H](C)NC(=O)[C@H](C)NC(=O)[C@H](CCCCN)NC(=O)[C@H](CCCCN)NC(=O)[C@H](CCCCN)NC(=O)[C@H](CCCCN)NC(=O)[C@H](CCCCN)NC(=O)[C@@H](N)CCCCN)C(N)=O [F17(K6), KKKKKKAAFAAWAAFAA-NH2] (H-KKKKKKAAFAAWAAFAA-NH2; N-terminus assumed) | 0.5 µM (≈ 0.918 µg/mL) | <0.25 µM | 0.5 µM (≈ 0.918 µg/mL) | – | 4 µM (≈ 7.34 µg/mL) | 0.5 µM (≈ 0.918 µg/mL) | 1 µM (≈ 1.84 µg/mL) | 8 µM (≈ 14.7 µg/mL) | 16 µM (≈ 29.4 µg/mL) | >32 µM | >32 µM | 8 µM (≈ 14.7 µg/mL) | 0 % lysis | 0 % lysis | 0 % lysis | 1 % lysis | 0.5 µM (≈ 0.918 µg/mL)
C[C@H](NC(=O)[C@H](C)NC(=O)[C@H](Cc1ccccc1)NC(=O)[C@H](C)NC(=O)[C@H](C)NC(=O)[C@H](CCCNC(=N)N)NC(=O)[C@H](CCCNC(=N)N)NC(=O)[C@@H](N)CCCNC(=N)N)C(=O)N[C@@H](Cc1c[nH]c2ccccc12)C(=O)N[C@@H](C)C(=O)N[C@@H](C)C(=O)N[C@@H](Cc1ccccc1)C(=O)N[C@@H](C)C(=O)N[C@@H](C)C(=O)N[C@@H](CCCNC(=N)N)C(=O)N[C@@H](CCCNC(=N)N)C(=O)N[C@@H](CCCNC(=N)N)C(N)=O [Peptide F17R, RRRAAFAAWAAFAARRR-NH2] (H-RRRAAFAAWAAFAARRR-NH2; N-terminus assumed) | 2 µM (≈ 4.01 µg/mL) | 0.5 µM (≈ 1 µg/mL) | 1 µM (≈ 2 µg/mL) | – | 4 µM (≈ 8.01 µg/mL) | 1 µM (≈ 2 µg/mL) | 2 µM (≈ 4.01 µg/mL) | 8 µM (≈ 16 µg/mL) | 16 µM (≈ 32.1 µg/mL) | >32 µM | >32 µM | 2 µM (≈ 4.01 µg/mL) | 0 % lysis | 0 % lysis | 0 % lysis | 2 % lysis | 1 µM (≈ 2 µg/mL)
C[C@H](NC(=O)[C@H](C)NC(=O)[C@H](C)NC(=O)[C@H](CCCCN)NC(=O)[C@@H](N)CCCCN)C(=O)N[C@@H](C)C(=O)N[C@@H](Cc1ccccc1)C(=O)N[C@@H](C)C(=O)N[C@@H](C)C(=O)N[C@@H](Cc1ccccc1)C(=O)N[C@@H](C)C(=O)N[C@@H](C)C(=O)N[C@@H](Cc1c[nH]c2ccccc12)C(=O)N[C@@H](Cc1ccccc1)C(=O)N[C@@H](C)C(=O)N[C@@H](C)C(=O)N[C@@H](Cc1ccccc1)C(=O)N[C@@H](C)C(=O)N[C@@H](C)C(=O)N[C@@H](C)C(=O)N[C@@H](C)C(=O)N[C@@H](CCCCN)C(=O)N[C@@H](CCCCN)C(=O)N[C@@H](CCCCN)C(=O)N[C@@H](CCCCN)C(N)=O [[F(4)25]] (H-KKAAAAFAAFAAWFAAFAAAAKKKK-NH2; N-terminus assumed) | 16 µM (≈ 40.9 µg/mL) | 4 µM (≈ 10.2 µg/mL) | – | 8 µM (≈ 20.4 µg/mL) | 4 µM (≈ 10.2 µg/mL) | – | 8 µM (≈ 20.4 µg/mL) | 16 µM (≈ 40.9 µg/mL) | 8 µM (≈ 20.4 µg/mL) | 32 µM (≈ 81.8 µg/mL) | >32 µM | 2 µM (≈ 5.11 µg/mL) | 17 % lysis | 42 % lysis | 14 % lysis | 34 % lysis | 0.25 µM (≈ 0.639 µg/mL)
C[C@H](NC(=O)[C@H](C)NC(=O)[C@H](CCCCN)NC(=O)[C@H](CCCCN)NC(=O)[C@@H](N)CCCCN)C(=O)N[C@@H](C)C(=O)N[C@@H](Cc1ccccc1)C(=O)N[C@@H](C)C(=O)N[C@@H](C)C(=O)N[C@@H](Cc1c[nH]c2ccccc12)C(=O)N[C@@H](C)C(=O)N[C@@H](C)C(=O)N[C@@H](Cc1ccccc1)C(=O)N[C@@H](C)C(=O)N[C@@H](CCCCN)C(=O)N[C@@H](CCCCN)C(=O)N[C@@H](CCCCN)C(N)=O [Peptide F17, KKKAAAFAAWAAFAKKK-NH2] (H-KKKAAAFAAWAAFAKKK-NH2; N-terminus assumed) | – | – | 4 µM (≈ 7.34 µg/mL) | – | >32 µM | 16 µM (≈ 29.4 µg/mL) | 32 µM (≈ 58.7 µg/mL) | >32 µM | >32 µM | >32 µM | >32 µM | 16 µM (≈ 29.4 µg/mL) | 0 % lysis | 0 % lysis | 0 % lysis | 2 % lysis | –
